Measured values reported in US9980943B2, “Methods of treating muscular dystrophy” (BOARD OF REGENTS OF THE NEVADA SYSTEM OF HIGHER EDUCATION, …, priority 2013, dated 2018).

What was measured:
Type in all cases: cell-based, mouse
[1] = system: α7 integrin (LacZ reporter in α7βgal+/− myoblasts); experiment: Myoblast α7+/LacZ integrin FDG assay (Burkin assay in myoblasts, 96-well); settings: α7+/LacZ myoblasts, 96-well
[2] = system: α7 integrin (LacZ reporter in α7+/LacZ myotubes); experiment: Myotube α7 integrin FDG assay (Burkin assay in myotubes, 96-well); settings: myotubes
[3] = system: β-galactosidase in CMV-LacZ C2C12 myotubes; experiment: CMV-LacZ secondary screen in C2C12 myotubes (β-Gal stabilizing assay); settings: for CMV-LACZ in Myotubes (β-galactosidase activity relative to DMSO): CMV-LacZ C2C12 myotubes, 96-well format; for CMV-LACZ in Myotubes, signal relative to DMSO: C2C12 CMV-LacZ myotubes, fold relative to DMSO
From the text: In order to determine compounds that acted to stabilize β-gal in myogenic cells, a CMV-LacZ C2C12 cell line was used in a secondary screen. The EGFP gene from the pEGFP (Clontech) vector was replaced by LACZ PCR product with digests of the vector/PCR product performed using EcoRI (NEB) and NotI (NEB) and ligated using T4 DNA Ligase (NEB) following standard procedures to produce the CMV-LACZ vector. The LACZ gene was generated by PCR from the pBK-RSV (Stratagene) vector using primers LACZ EcoRI F- and LACZ NotI R-. The CMV-LACZ vector was then digested with AfIII (NEB) to linearize the construct, which was then transfected in C2C12 myoblasts using Lipofectamine 2000 (Invitrogen) following the manufacturer's instructions. […] Clonal lines were selected and screened for βgal levels using the myoblast FDG assay.
The assays were used the original 96-well format and new dose-response curves for myoblasts (N=3-6 replicates for each data point), myotubes (N=3-6 replicates for data point), and CMV-LacZ secondary assay (N=2 replicates for each data point) using concentrations of 0.5 μM, 1 μM, 5 μM, 10 μM, 20 μM, and 40 μM (Tables 9-16).

SMILES | Burkin Assay in Myoblasts, value relative to DMSO ([1]; 0.5 uM) | Burkin Assay in Myoblasts, value relative to DMSO ([1]; 1 uM) | Burkin Assay in Myoblasts, value relative to DMSO ([1]; 5 uM) | Burkin Assay in Myoblasts, value relative to DMSO ([1]; 10 uM) | Burkin Assay in Myoblasts, value relative to DMSO ([1]; 20 uM) | Burkin Assay in Myoblasts, value relative to DMSO ([1]; 40 uM) | Burkin Assay in Myotubes (signal relative to DMSO) ([2]; 0.5 uM) | Burkin Assay in Myotubes (signal relative to DMSO) ([2]; 1 uM) | Burkin Assay in Myotubes (signal relative to DMSO) ([2]; 5 uM) | Burkin Assay in Myotubes (signal relative to DMSO) ([2]; 10 uM) | Burkin Assay in Myotubes (signal relative to DMSO) ([2]; 20 uM) | Burkin Assay in Myotubes (signal relative to DMSO) ([2]; 40 uM) | CMV-LACZ in Myotubes (β-galactosidase activity relative to DMSO) ([3]; 5 uM) | CMV-LACZ in Myotubes (β-galactosidase activity relative to DMSO) ([3]; 10 uM) | CMV-LACZ in Myotubes (β-galactosidase activity relative to DMSO) ([3]; 20 uM) | CMV-LACZ in Myotubes (β-galactosidase activity relative to DMSO) ([3]; 40 uM) | CMV-LACZ in Myotubes, signal relative to DMSO ([3]; 5 uM) | CMV-LACZ in Myotubes, signal relative to DMSO ([3]; 10 uM) | CMV-LACZ in Myotubes, signal relative to DMSO ([3]; 20 uM) | CMV-LACZ in Myotubes, signal relative to DMSO ([3]; 40 uM) | further results
O=C(Nc1cc(Br)ccc1O)C1CC(c2ccccc2Cl)=NO1 (centres unmarked) [MLS001202627-01] | 1.172 | 1.081 | 0.9923 | 0.7739 | 0.5427 | 0.2179 | 0.9687 | 0.7692 | 1.025 | 0.8124 | 0.9394 | 0.2335 | 0.9234 | 0.9555 | 0.9345 | 0.735 | – | – | – | – | –
Cl.O=C(CN1CCOCC1)NCc1cc([N+](=O)[O-])ccc1O [MLS001211976-01] | – | – | – | – | – | – | – | – | – | – | – | – | – | – | – | – | 0.8547 | 0.9979 | 0.9697 | 1.014 | Burkin Assay in Myoblasts, signal relative to DMSO ([1]; 0.5 uM): 0.9583; Burkin Assay in Myoblasts, signal relative to DMSO ([1]; 1 uM): 0.946; Burkin Assay in Myoblasts, signal relative to DMSO ([1]; 5 uM): 0.9018; Burkin Assay in Myoblasts, signal relative to DMSO ([1]; 10 uM): 0.9154; Burkin Assay in Myoblasts, signal relative to DMSO ([1]; 20 uM): 0.9417; Burkin Assay in Myoblasts, signal relative to DMSO ([1]; 40 uM): 0.8952; Burkin Assay in Myotubes, α7 integrin LacZ reporter signal relative to DMSO ([2]; 0.5 uM): 1.032; Burkin Assay in Myotubes, α7 integrin LacZ reporter signal relative to DMSO ([2]; 1 uM): 1.2336; Burkin Assay in Myotubes, α7 integrin LacZ reporter signal relative to DMSO ([2]; 5 uM): 1.241; Burkin Assay in Myotubes, α7 integrin LacZ reporter signal relative to DMSO ([2]; 10 uM): 1.199; Burkin Assay in Myotubes, α7 integrin LacZ reporter signal relative to DMSO ([2]; 20 uM): 1.099; Burkin Assay in Myotubes, α7 integrin LacZ reporter signal relative to DMSO ([2]; 40 uM): 1.1302
CS(=O)(=O)Cc1cccc(C(=O)NN(c2ccccc2)c2ccccc2)c1 [MLS001175473-01] | 0.5331 | 0.3721 | 0.8732 | 0.8715 | 0.899 | 0.8698 | 0.9556 | 0.9177 | 0.8872 | 0.9977 | 1.041 | 0.7971 | 0.8962 | 0.8587 | 0.9592 | 1.066 | – | – | – | – | –
CC(=O)c1cccc(NC(=O)C2CCCN(S(=O)(=O)c3cccc4nonc34)C2)c1 (centres unmarked) [MLS000937079-01] | 1.163 | 0.8958 | 1.053 | 1.147 | 1.028 | 0.9956 | 1.0515 | 0.6372 | 0.9756 | 0.8882 | 1.142 | 0.9197 | 1.087 | 0.9923 | 0.9641 | 0.9682 | – | – | – | – | –
Cc1cc(-c2ccccc2)n2nc(N)nc2n1 [MLS000122180-01] | 0.8023 | 0.8424 | 0.9726 | 0.9665 | 1.004 | 0.9116 | 1.006 | 0.9341 | 1.027 | 0.7456 | 0.9557 | 0.9496 | – | – | – | – | 0.7773 | 0.8808 | 0.8136 | 1.007 | –
CS(=O)(=O)N(Cc1ccc(C(=O)NC2CCCC2)cc1)c1ccccc1 [MLS000714175-01] | 0.5383 | 0.975 | 1.1625 | 1.06 | 0.9936 | 0.9626 | 1.086 | 1.061 | 1.131 | 1.013 | 1.119 | 1.022 | 0.9319 | 1.097 | 1.124 | 0.971 | – | – | – | – | –
O=C(COC(=O)c1cc2ccccc2oc1=O)Nc1ccc(F)cc1F [MLS000516719-01] | 1.006 | 1.048 | 1.0321 | 1.068 | 0.9197 | 0.9651 | 0.8618 | 1.0239 | 1.203 | 1.184 | 1.107 | 1.175 | 0.8894 | 1.114 | 1.103 | 1.072 | – | – | – | – | –
NC(=O)c1cccnc1Oc1ccc(Cl)cc1Cl [MLS000861434-01] | – | – | – | – | – | – | – | – | – | – | – | – | – | – | – | – | 0.8844 | 0.8027 | 0.8429 | 0.8381 | Burkin Assay in Myoblasts, signal relative to DMSO ([1]; 0.5 uM): 0.9464; Burkin Assay in Myoblasts, signal relative to DMSO ([1]; 1 uM): 1.028; Burkin Assay in Myoblasts, signal relative to DMSO ([1]; 5 uM): 0.9133; Burkin Assay in Myoblasts, signal relative to DMSO ([1]; 10 uM): 0.9772; Burkin Assay in Myoblasts, signal relative to DMSO ([1]; 20 uM): 0.8777; Burkin Assay in Myoblasts, signal relative to DMSO ([1]; 40 uM): 0.9322; Burkin Assay in Myotubes, α7 integrin LacZ reporter signal relative to DMSO ([2]; 0.5 uM): 0.9593; Burkin Assay in Myotubes, α7 integrin LacZ reporter signal relative to DMSO ([2]; 1 uM): 1.066; Burkin Assay in Myotubes, α7 integrin LacZ reporter signal relative to DMSO ([2]; 5 uM): 0.9788; Burkin Assay in Myotubes, α7 integrin LacZ reporter signal relative to DMSO ([2]; 10 uM): 1.101; Burkin Assay in Myotubes, α7 integrin LacZ reporter signal relative to DMSO ([2]; 20 uM): 0.8762; Burkin Assay in Myotubes, α7 integrin LacZ reporter signal relative to DMSO ([2]; 40 uM): 1.058
